Assay results published in the NIST ThermoML archive (doi:10.1016/j.tca.2013.06.031).
Numbers after ± are expanded uncertainties.

How the values were obtained:
[1] = wn = mass fraction of the nth substance listed; conditions: 101 kPa, Liquid, w1 = 0.009; for viscosity: Capillary tube (Ostwald / Ubbelohde) method; for mass density: Vibrating tube method
[2] = 101 kPa, Liquid, Capillary tube (Ostwald / Ubbelohde) method
[3] = mn = molality of the nth substance listed, in mol/kg; conditions: 101 kPa, Liquid, m2 = 0; for viscosity: Capillary tube (Ostwald / Ubbelohde) method; for mass density: Vibrating tube method

Structure (SMILES): [Cl-].[Na+] [sodium chloride] + O
- viscosity ([1]; 278.15 K): 1.53 ± 0.015 mPa·s
- mass density ([1]; 278.15 K): 1006.09 ± 0.27 kg/m3
- viscosity ([1]; 283.15 K): 1.321 ± 0.013 mPa·s
- mass density ([1]; 283.15 K): 1005.64 ± 0.27 kg/m3
- viscosity ([1]; 288.15 K): 1.154 ± 0.011 mPa·s
- mass density ([1]; 288.15 K): 1005.07 ± 0.28 kg/m3
- viscosity ([1]; 293.15 K): 1.015 ± 0.0098 mPa·s
- mass density ([1]; 293.15 K): 1004.14 ± 0.27 kg/m3
- viscosity ([1]; 298.15 K): 0.9068 ± 0.0086 mPa·s
- mass density ([1]; 298.15 K): 1002.96 ± 0.27 kg/m3
- viscosity ([1]; 303.15 K): 0.8105 ± 0.0077 mPa·s
- mass density ([1]; 303.15 K): 1001.47 ± 0.27 kg/m3
- viscosity ([1]; 308.15 K): 0.7363 ± 0.007 mPa·s
- mass density ([1]; 308.15 K): 999.75 ± 0.27 kg/m3
- viscosity ([1]; 313.15 K): 0.6641 ± 0.0065 mPa·s
- mass density ([1]; 313.15 K): 997.82 ± 0.26 kg/m3

Structure (SMILES): O [water]
- viscosity ([2]; 278.15 K): 1.521 ± 0.014 mPa·s
- viscosity ([2]; 283.15 K): 1.307 ± 0.013 mPa·s
- viscosity ([2]; 288.15 K): 1.135 ± 0.011 mPa·s
- viscosity ([2]; 293.15 K): 1.002 ± 0.0094 mPa·s
- viscosity ([2]; 298.15 K): 0.8903 ± 0.0083 mPa·s
- viscosity ([2]; 303.15 K): 0.7977 ± 0.0074 mPa·s
- viscosity ([2]; 308.15 K): 0.719 ± 0.0067 mPa·s
- viscosity ([2]; 313.15 K): 0.6532 ± 0.0062 mPa·s

Structure (SMILES): O [water] + CO/N=C(\C(=O)N[C@@H]1C(=O)N2C(C(=O)[O-])=C(CSc3nc(C)c(CC(=O)[O-])s3)CS[C@H]12)c1csc(N)n1.[Na+].[Na+]
- viscosity ([3]; 278.15 K): 1.521 ± 0.014 mPa·s
- mass density ([3]; 278.15 K): 999.96 ± 0.24 kg/m3
- viscosity ([3]; 283.15 K): 1.307 ± 0.013 mPa·s
- mass density ([3]; 283.15 K): 999.7 ± 0.25 kg/m3
- viscosity ([3]; 288.15 K): 1.135 ± 0.011 mPa·s
- viscosity ([3]; 293.15 K): 1.002 ± 0.0094 mPa·s
- viscosity ([3]; 298.15 K): 0.8903 ± 0.0083 mPa·s
- viscosity ([3]; 303.15 K): 0.7977 ± 0.0074 mPa·s
- viscosity ([3]; 308.15 K): 0.719 ± 0.0067 mPa·s
- viscosity ([3]; 313.15 K): 0.6532 ± 0.0062 mPa·s
